Results published in patent US20050032124A1, “Identification of genotype-selective agents for treating Huntington's disease” (priority 2003, published 2005).

Key:
Type in all cases: cell-based, human
[1] = system: active, cleaved form of caspase 3; experiment: Western blot for active caspase-3; conditions: BJ-TERT/LT/ST/RAS^V12 cells
Method: BJ-TERT/LT/ST/RAS^V12 cells were seeded prior to the experiment at 5×10^5 cells in 60 mm dishes. The cells were treated with 5 μg/ml erastin (9 μM) for 2, 4, 6, 8 or 10 hours. One dish was maintained for camptothecin treatment (0.4 μg/ml for 24 h) as a positive control. Cells were lysed after each time point in lysis buffer (50 mM HEPES KOH pH […] NaCl, 2 mM EDTA, 0.5% Triton X-100, 1.5 mM Na3VO4, 50 mM NaF, 10 mM sodium pyrophosphate, 10 mM sodium beta-glycerophosphate and protease inhibitor tablet (Roche)). Protein content was quantified using a Biorad protein assay reagent. Equal amounts of protein were resolved on 16% SDS-polyacrylamide gel. The electrophoresed proteins were transblotted onto a PVDF membrane, blocked with 5% milk and incubated with anti-active caspase-3 polyclonal antibody (BD Pharmingen) at 1:1500 dilution overnight at 4° C. The membrane was then incubated in anti-rabbit-HRP (Santa Cruz Biotechnology) at 1:3000 dilution for 1 hour and developed with an enhanced chemiluminescence mixture (NEN life science, Renaissance). To test for equivalent loading in each lane, blots were stripped, blocked, and probed with an anti-eIF-4E antibody (BD Transduction laboratories) at 1:1000 dilution.

[2] = system: BJ-TERT/LT/ST/RAS^V12 cells; experiment: DNA fragmentation (DNA ladder)
[3] = system: BJ-TERT/LT/ST/RAS^V12 cells; experiment: Block of compound-induced cell death by pan-caspase inhibitor; conditions: 50 μM Boc-Asp(Ome)-fluoromethyl ketone
[4] = system: BJ-TERT/LT/ST/RAS^V12 cells; experiment: Nuclear morphology assay; conditions: 18 hours
Text: Applicants sought to characterize the type of cell death induced by CPT and erastin in tumorigenic BJ-TERT/LT/ST/RAS^V12 cells. […] To determine whether erastin or CPT induces apoptosis in their system, Applicants monitored the nuclear morphology of CPT- and erastin-treated tumorigenic cells using fluorescence microscopy. […] Since nuclear morphological change is required of apoptotic cells, Applicants conclude that cell death induced by erastin is non-apoptotic. […] Additionally, nuclei remained intact in erastin-treated tumor cells (FIG. 9).
200,000 tumorigenic BJ-TERT/LT/ST/RAS^V12 cells were seeded in 2 mL on glass coverslips in each well of a six-well dish, treated with nothing (NT), 9 μM erastin or 1.1 μM camptothecin (CPT) in growth medium for 18 hours while incubating at 37° C. with 5% CO2. Nuclei were stained with 25 μg/mL Hoechst 33342 (Molecular Probes) and viewed using an oil immersion 100× objective on a fluorescence microscope.

## CC[C@@]1(O)C(=O)OCc2c1cc1n(c2=O)Cc2cc3ccccc3nc2-1 [Camptothecin]
[1]
  activated caspase 3 (western blot): harbor activated caspase 3
[2]
  DNA fragmentation (formation of a DNA ladder): induces DNA fragmentation
[3]
  cell death blocked by pan-caspase inhibitor: partially blocked
[4]; 1.1 μM camptothecin
  fragmented nuclei, % of total nuclei: 10-20%
[4]; 9 μM erastin or 1.1 μM CPT
  nuclear morphology (karyorhexis and margination of chromatin): karyorhexis and margination of chromatin were clearly visible
